Test results from patent US20190127366A1 (LifeSci Pharmaceuticals, Inc., priority 2015, published 2019).

Assays:
[1] = molecular target: T1, human complement factor D (Homo sapiens, UniProt P00746); assay: In vitro enzyme inhibition (Z-Lys-SBzl/DTNB absorbance assay); format: biochemical; conditions: Complement Factor D (R&D Systems), substrate Z-Lys-SBzl, A405 nm; read-out: CFD IC50
T1 construct: purchased R&D Systems 1824-SE
Procedure, shortened: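 Factor D (6.25 ng/μL before addition) preincubated 5 min RT with compound (8 points from 50 μM, 6-fold, 0.5% DMSO final) in 50 mM Tris/HCl pH 7.5, 1 M NaCl, then Z-Lys-SBzl/DTNB added (200 μM each before addition). A405 read kinetically every 30 s for 60 min; IC50 from variable-slope fit, controls with and without enzyme.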

[2] = tested on: alternative pathway (AP) hemolytic activity; assay: AP hemolysis inhibition assay; format: cell-based; conditions: Erythrocyte, 1 h; Normal Human Serum, chicken or rabbit erythrocytes, 60 min at 37° C., OD 414 nm
Method: The ability of the compounds disclosed herein to inhibit alternative pathway (AP) hemolytic activity was determined. Red blood cells (RBC), chicken or rabbit erythrocyctes (SbjBio), were washed three time using assay buffer containing 0.1% gelatin, 5 mM Veronal, 145 mM NaCl, 0.025% NaN3, 10 mM Mg-EGTA pH 7.3. In 100 μL reaction system, 1300 to 1500 ng/μL final concentration of Normal Human Serum (CompTech) was incubated with compound for 15 min at 37° C. Then 2×10^6 cells/well of chicken or rabbit erythrocytes in assay buffer were added and incubated for an additional 60 min at 37° C. Positive control (100% lysis) consists of serum and RBC, and negative control (0% lysis) consists of assay buffer and RBC only. Samples were centrifuged at 2000 g for 5 min, and supernatants collected. Optical density of the supernatant is monitored at 414 nm using Synergy 2 (BioTek). Percentage lysis in each sample is calculated relative to positive control (100% lysis).
Table 3 discloses the inhibitory activity of the compounds provided herein in the hemolysis assay.

T1 sequence (P00746 26-253): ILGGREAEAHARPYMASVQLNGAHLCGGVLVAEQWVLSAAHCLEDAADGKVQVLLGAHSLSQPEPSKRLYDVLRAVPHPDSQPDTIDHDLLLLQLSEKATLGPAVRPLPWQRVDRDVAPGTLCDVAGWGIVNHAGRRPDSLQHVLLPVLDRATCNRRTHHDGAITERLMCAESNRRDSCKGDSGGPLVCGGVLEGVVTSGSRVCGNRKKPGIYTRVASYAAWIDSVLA

Row | IC50 [1] | Structure (SMILES) | EC50 [2]
1 | < 100 nM | NC(=O)c1nn(CC(=O)N2[C@@H]3CC[C@@H](C3)[C@H]2C(=O)Nc2cccc(Br)n2)c2ccccc12 [Example 65, 1-(2-((1R,3S,4S)-3-((6-bromopyridin-2-yl)carbamoyl)-2-azabicyclo[2.2.1]heptan-2-yl)-2-oxoethyl)-1H-indazole-3-carboxamide] | 100 to 1000 nM
2 | < 100 nM | NC(=O)c1nn(CC(=O)N2[C@@H]3CC[C@@H](C3)[C@H]2C(=O)Nc2cccc(Cl)n2)c2cc(F)ccc12 [Example 71, 1-(2-((1R,3S,4S)-3-((6-chloropyridin-2-yl)carbamoyl)-2-azabicyclo[2.2.1]heptan-2-yl)-2-oxoethyl)-6-fluoro-1H-indazole-3-carboxamide] | 100 to 1000 nM
3 | < 100 nM | CC(=O)c1nn(CC(=O)N2[C@@H]3CC[C@@H](C3)[C@H]2C(=O)Nc2cccc(Cl)n2)c2ccccc12 [Example 80, (1R,3S,4S)-2-(2-(3-acetyl-1H-indazol-1-yl)acetyl)-N-(6-chloropyridin-2-yl)-2-azabicyclo[2.2.1]heptane-3-carboxamide] | 100 to 1000 nM
4 | 100 to 1000 nM | NC(=O)c1nn(CC(=O)N2[C@@H]3CC[C@@H](C3)[C@H]2C(=O)Nc2cccc(Cl)n2)c2cc(N)ccc12 [Example 93, 6-amino-1-(2-((1R,3S,4S)-3-((6-chloropyridin-2-yl)carbamoyl)-2-azabicyclo[2.2.1]heptan-2-yl)-2-oxoethyl)-1H-indazole-3-carboxamide 2,2,2-trifluoroacetate] | 100 to 1000 nM
5 | 100 to 1000 nM | COC(=O)c1ccc2c(C(N)=O)nn(CC(=O)N3[C@@H]4CC[C@@H](C4)[C@H]3C(=O)Nc3cccc(Cl)n3)c2c1 [Example 122, methyl 3-carbamoyl-1-(2-((1R,3S,4S)-3-((6-chloropyridin-2-yl)carbamoyl)-2-azabicyclo[2.2.1]heptan-2-yl)-2-oxoethyl)-1H-indazole-6-carboxylate] | 100 to 1000 nM
6 | < 100 nM | NC(=O)c1nn(CC(=O)N2[C@@H]3CC[C@@H](C3)[C@H]2C(=O)Nc2cccc(Cl)n2)c2cc(C(=O)O)ccc12 [Example 123, 3-carbamoyl-1-(2-((1R,3S,4S)-3-((6-chloropyridin-2-yl)carbamoyl)-2-azabicyclo[2.2.1]heptan-2-yl)-2-oxoethyl)-1H-indazole-6-carboxylic acid] | < 100 nM
7 | 100 to 1000 nM | NC(=O)n1cc(NC(=O)N2[C@@H]3CC[C@@H](C3)[C@H]2C(=O)Nc2cccc(Cl)n2)c2ccccc21 [Example 156, (1R,3S,4S)-N2-(1-carbamoyl-1H-indol-3-yl)-N3-(6-chloropyridin-2-yl)-2-azabicyclo[2.2.1]heptane-2,3-dicarboxamide] | 100 to 1000 nM
8 | < 100 nM | Cc1ccc2c(c1)c(C(N)=O)nn2CC(=O)N1[C@H](C(=O)Nc2cccc(Cl)n2)C[C@@H]2CCC[C@@H]21 [Example 168, 1-(2-((2S,3aS,6aS)-2-((6-chloropyridin-2-yl)carbamoyl)hexahydrocyclopenta[b]pyrrol-1(2H)-yl)-2-oxoethyl)-5-methy1-1H-indazole-3-carboxamide] | 100 to 1000 nM
9 | < 100 nM | NC(=O)c1nn(CC(=O)N2CC[C@H]2C(=O)NCc2cccc(Cl)c2F)c2ccccc12 [Example 185, (S)-1-(2-(2-((3-chloro-2-fluorobenzyl)carbamoyl)azetidin-1-yl)-2-oxoethyl)-1H-indazole-3-carboxamide] | < 100 nM
10 | < 100 nM | NC(=O)n1nc(CC(=O)N2CC[C@H]2C(=O)NCc2cccc(Cl)c2F)c2ccccc21 [Example 188, (S)-3-(2-(2-((3-chloro-2-fluorobenzyl)carbamoyl)azetidin-l-yl)-2-oxoethyl)-1H-indazole-1-carboxamide] | 100 to 1000 nM
11 | < 100 nM | CC(=O)c1nn(CC(=O)N2CC[C@H]2C(=O)NCc2cccc(Cl)c2F)c2ccccc12 [Example 190, (S)-1-(2-(3-acetyl-1H-indazol-1-yl)acetyl)-N-(3-chloro-2-fluorobenzyl)azetidine-2-carboxamide] | < 100 nM

The next lines start with the compound.

Row | Structure (SMILES) | IC50 [1] | EC50 [2]
12 | CC(=O)c1nn(CC(=O)N2[C@@H]3CC[C@@H](C3)[C@H]2C(=O)Nc2cccc(Cl)n2)c2cnccc12 [Example 66, (1R,3S,4S)-2-(2-(3-acetyl-1H-pyrazolo[3,4-c]pyridin-1-yl)acetyl)-N-(6-chloropyridin-2-yl)-2-azabicyclo[2.2.1]heptane-3-carboxamide] | 100 to 1000 nM | 100 to 1000 nM
13 | Cc1cc(Cl)nc(NC(=O)[C@@H]2[C@H]3CC[C@H](C3)N2C(=O)Cn2nc(C(N)=O)c3ccccc32)c1 [Example 77, 1-(2-((1R,3S,4S)-3-((6-chloro-4-methylpyridin-2-yl)carbamoyl)-2-azabicyclo[2.2.1]heptan-2-yl)-2-oxoethyl)-1H-indazole-3-carboxamide] | 100 to 1000 nM | 100 to 1000 nM
14 | COc1ccc(Cl)nc1NC(=O)[C@@H]1[C@H]2CC[C@H](C2)N1C(=O)Cn1nc(C(N)=O)c2ccccc21 [Example 96, 1-(2-((1R,3S,4S)-3-((6-chloro-3-methoxypyridin-2-yl)carbamoyl)-2-azabicyclo[2.2.1]heptan-2-yl)-2-oxoethyl)-1H-indazole-3-carboxamide] | < 100 nM | < 100 nM
15 | NC(=O)c1nn(CC(=O)N2[C@@H]3CC[C@@H](C3)[C@H]2C(=O)Nc2cc(C(=O)O)cc(Cl)n2)c2ccccc12 [Example 104, 2-((1R,3S,4S)-2-(2-(3-carbamoyl-1H-indazol-1-yl)acetyl)-2-azabicyclo[2.2.1]heptane-3-carboxamido)-6-chloroisonicotinic acid] | < 100 nM | < 100 nM
16 | NC(=O)c1nn(CC(=O)N2[C@@H]3CC[C@@H](C3)[C@H]2C(=O)Nc2cccc(Cl)n2)c2cc(CO)ccc12 [Example 125, 1-(2-((1R,3S,4S)-3-((6-chloropyridin-2-yl)carbamoyl)-2-azabicyclo[2.2.1]heptan-2-yl)-2-oxoethyl)-6-(hydroxymethyl)-1H-indazole-3-carboxamide] | 100 to 1000 nM | 100 to 1000 nM
17 | NC(=O)c1nn(CC(=O)N2C(C(=O)NCc3cccc(Cl)c3F)[C@@H]3C[C@@H](O)[C@H]2[C@H]3O)c2ccccc12 (stereo partly drawn) [Example 152, 1-(2-((1S,4S,6R,7S)-3-((3-chloro-2-fluorobenzyl)carbamoyl)-6,7-dihydroxy-2-azabicyclo[2.2.1]heptan-2-yl)-2-oxoethyl)-1H-indazole-3-carboxamide] | 100 to 1000 nM | 100 to 1000 nM
18 | NC(=O)c1nn(CC(=O)N2[C@H](C(=O)NCc3cccc(Cl)c3F)C[C@@H]3CCC[C@@H]32)c2ccccc12 [Example 157, 1-(2-((2S,3aS,6aS)-2-((3-chloro-2-fluorobenzyl)carbamoyl)hexahydrocyclopenta[b]pyrrol-1(2H)-yl)-2-oxoethyl)-1H-indazole-3-carboxamide] | < 100 nM | 100 to 1000 nM
19 | NC(=O)c1nn(CC(=O)N2[C@H](C(=O)Nc3cccc(Cl)n3)C[C@@H]3CCC[C@@H]32)c2ccccc12 [Example 159, 1-(2-((2S,3aS,6aS)-2-((6-chloropyridin-2-yl)carbamoyl)hexahydrocyclopenta[b]pyrrol-1(2H)-yl)-2-oxoethyl)-1H-indazole-3-carboxamide] | 100 to 1000 nM | 100 to 1000 nM
20 | NC(=O)c1nn(CC(=O)N2[C@H](C(=O)NCc3cccc(Cl)c3F)C[C@@H]3CCC[C@@H]32)c2cc(F)ccc12 [Example 167, 1-(2-((2S,3aS,6aS)-2-((3-chloro-2-fluorobenzyl)carbamoyl)hexahydrocyclopenta[b]pyrrol-1(2H)-y1)-2-oxoethyl)-6-fluoro-1H-indazole-3-carboxamide] | < 100 nM | 100 to 1000 nM
21 | NC(=O)c1nn(CC(=O)N2[C@H](C(=O)Nc3cccc(Cl)n3)C[C@@H]3CCC[C@@H]32)c2ccc(F)cc12 [Example 169, 1-(2-((2S,3aS,6aS)-2-((6-chloropyridin-2-yl)carbamoyl)hexahydrocyclopenta[b]pyrrol-1(2H)-yl)-2-oxoethyl)-5-fluoro-1H-indazole-3-carboxamide] | 100 to 1000 nM | 100 to 1000 nM
22 | NC(=O)c1nn(CC(=O)N2CC[C@H]2C(=O)NCc2cccc(Cl)c2F)c2cnccc12 [Example 189, (S)-1-(2-(2-((3-chloro-2-fluorobenzyl)carbamoyl)azetidin-1-yl)-2-oxoethyl)-1H-pyrazolo[3,4-c]pyridine-3-carboxamide] | < 100 nM | 100 to 1000 nM
